Tests used:
[1] = target: T1, recombinant integrin α4β1 (Homo sapiens, UniProt P05556+P13612); test: Integrin α4β1—VCAM-1 competition ELISA; assay type: binding; settings: for ELISA Assay Ratio β1/β7: ratio of ELISA IC50s, α4β1 over α4β7; for IC50: read-out: ELISA α4β1 Assay IC50
T1 construct: purchased R&D Systems 5397-A3-050
Outline: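 Detection of bound ligand used HRP-conjugated anti-human IgG Fc, 1 h with agitation at room temperature. This followed a 2 h room-temperature, 300 rpm equilibration of compound in the coated wells. Washes were done in 50 mM Tris, 100 mM NaCl, 1 mM MnCl2, 0.05% Tween.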

[2] = target: T2, recombinant integrin α4β7 (Homo sapiens, UniProt P13612+P26010, DEL724-798); test: Integrin α4β7—MAdCAM-1 ELISA competition assay; assay type: binding; settings: read-out: ELISA α4β7 Assay IC50
T2 construct: purchased R&D Systems 5397-A3-050
T2 sequence (P13612 34-970 limits assumed): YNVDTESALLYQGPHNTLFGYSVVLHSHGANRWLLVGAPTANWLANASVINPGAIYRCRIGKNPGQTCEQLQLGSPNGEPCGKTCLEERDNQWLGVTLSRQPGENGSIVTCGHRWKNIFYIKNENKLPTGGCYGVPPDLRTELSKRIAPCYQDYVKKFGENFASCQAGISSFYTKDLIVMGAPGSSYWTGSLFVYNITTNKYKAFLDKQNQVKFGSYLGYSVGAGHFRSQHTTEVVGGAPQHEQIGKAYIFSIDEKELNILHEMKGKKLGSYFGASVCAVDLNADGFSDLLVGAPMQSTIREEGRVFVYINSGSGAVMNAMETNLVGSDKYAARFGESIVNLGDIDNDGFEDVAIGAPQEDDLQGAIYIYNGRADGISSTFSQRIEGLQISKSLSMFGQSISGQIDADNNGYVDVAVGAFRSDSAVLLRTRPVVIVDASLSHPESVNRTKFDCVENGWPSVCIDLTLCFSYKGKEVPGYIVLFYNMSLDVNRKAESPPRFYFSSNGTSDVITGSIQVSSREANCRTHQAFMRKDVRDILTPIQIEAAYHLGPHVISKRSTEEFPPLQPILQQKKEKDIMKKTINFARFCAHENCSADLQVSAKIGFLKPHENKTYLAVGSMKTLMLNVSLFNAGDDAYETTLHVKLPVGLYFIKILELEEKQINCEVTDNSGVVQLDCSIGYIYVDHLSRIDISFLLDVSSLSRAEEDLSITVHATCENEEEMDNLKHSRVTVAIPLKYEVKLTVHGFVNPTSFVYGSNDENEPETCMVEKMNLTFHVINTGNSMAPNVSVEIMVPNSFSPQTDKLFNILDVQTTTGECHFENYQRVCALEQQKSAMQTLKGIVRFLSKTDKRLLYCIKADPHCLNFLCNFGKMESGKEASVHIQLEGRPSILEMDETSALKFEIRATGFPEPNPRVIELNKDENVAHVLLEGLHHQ
T2 sequence (P26010 20-723 limits assumed): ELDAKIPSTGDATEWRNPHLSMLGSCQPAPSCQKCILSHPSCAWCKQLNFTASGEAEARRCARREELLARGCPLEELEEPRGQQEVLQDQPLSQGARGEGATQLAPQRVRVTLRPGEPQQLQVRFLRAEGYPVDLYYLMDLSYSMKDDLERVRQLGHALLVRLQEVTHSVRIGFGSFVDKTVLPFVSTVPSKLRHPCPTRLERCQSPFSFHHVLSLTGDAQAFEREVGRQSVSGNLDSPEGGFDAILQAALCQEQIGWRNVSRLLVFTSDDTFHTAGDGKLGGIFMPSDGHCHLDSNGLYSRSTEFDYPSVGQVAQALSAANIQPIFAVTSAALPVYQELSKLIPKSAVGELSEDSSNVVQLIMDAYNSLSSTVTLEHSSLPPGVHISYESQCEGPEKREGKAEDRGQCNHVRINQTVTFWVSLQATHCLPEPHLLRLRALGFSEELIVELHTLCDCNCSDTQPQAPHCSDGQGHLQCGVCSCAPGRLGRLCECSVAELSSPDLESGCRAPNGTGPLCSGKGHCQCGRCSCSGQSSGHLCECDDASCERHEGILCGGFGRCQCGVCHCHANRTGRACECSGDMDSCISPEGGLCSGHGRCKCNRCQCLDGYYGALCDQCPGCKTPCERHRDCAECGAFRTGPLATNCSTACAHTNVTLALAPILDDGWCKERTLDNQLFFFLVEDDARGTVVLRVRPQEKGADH

T1 sequence (P05556 21-728 limits assumed, one chain of several): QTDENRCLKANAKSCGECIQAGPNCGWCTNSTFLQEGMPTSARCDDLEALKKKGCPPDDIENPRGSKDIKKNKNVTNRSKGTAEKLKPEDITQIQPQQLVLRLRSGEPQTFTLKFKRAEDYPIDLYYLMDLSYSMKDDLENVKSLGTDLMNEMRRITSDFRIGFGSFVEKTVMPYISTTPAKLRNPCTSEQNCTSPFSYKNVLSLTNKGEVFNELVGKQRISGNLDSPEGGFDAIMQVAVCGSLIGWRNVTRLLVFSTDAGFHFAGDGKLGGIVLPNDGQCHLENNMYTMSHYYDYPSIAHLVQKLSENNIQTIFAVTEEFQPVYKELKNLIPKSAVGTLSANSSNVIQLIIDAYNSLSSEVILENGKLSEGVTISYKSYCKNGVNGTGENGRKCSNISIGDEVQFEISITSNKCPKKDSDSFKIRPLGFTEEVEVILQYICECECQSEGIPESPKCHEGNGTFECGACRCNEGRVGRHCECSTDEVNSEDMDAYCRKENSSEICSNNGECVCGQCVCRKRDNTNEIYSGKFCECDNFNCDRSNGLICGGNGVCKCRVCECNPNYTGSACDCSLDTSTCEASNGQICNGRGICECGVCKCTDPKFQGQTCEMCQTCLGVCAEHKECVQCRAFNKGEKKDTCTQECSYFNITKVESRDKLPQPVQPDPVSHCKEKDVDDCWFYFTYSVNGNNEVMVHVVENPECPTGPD

Compound	ELISA Assay Ratio β1/β7 [1]	IC50 [1] [nM]	IC50 [2] [nM]
CC(C)C[C@@H]1NC(=O)c2ccc(-c3ccc(N4CCN(c5ncc([N+](=O)[O-])c(N6CCN(c7ccc(-c8ccc9cc8CNC(=O)[C@@H]8CCCN8[C@H](C(=O)NC(C)(C)C)[C@H](C)NC(=O)[C@H]([C@@H](C)O)NC(=O)[C@H](CC(=O)O)NC(=O)[C@H](CC(C)C)NC9=O)cc7)CC6)n5)CC4)cc3)c(c2)CNC(=O)[C@@H]2CCCN2[C@H](C(=O)NC(C)(C)C)[C@H](C)NC(=O)[C@H]([C@@H](C)O)NC(=O)[C@H](CC(=O)O)NC1=O [Compound 468]	0.3	10	32
CC(C)C[C@@H]1NC(=O)c2ccc(-c3ccc(N4CCN(C(=O)CCOCCOCCOCCOCCOCCOCCOCCOCCOCCOCCC(=O)N5CCN(c6ccc(-c7ccc8cc7CNC(=O)[C@@H]7CCCN7[C@H](C(=O)NC(C)(C)C)[C@H](C)NC(=O)[C@H]([C@@H](C)O)NC(=O)[C@H](CC(=O)O)NC(=O)[C@H](CC(C)C)NC8=O)cc6)CC5)CC4)cc3)c(c2)CNC(=O)[C@@H]2CCCN2[C@H](C(=O)NC(C)(C)C)[C@H](C)NC(=O)[C@H]([C@@H](C)O)NC(=O)[C@H](CC(=O)O)NC1=O [Compound 511]	0.6	7.2	11
CC(C)C[C@@H]1NC(=O)c2ccc(-c3ccc(N4CCN(Cc5cc(CN6CCN(c7ccc(-c8ccc9cc8CNC(=O)[C@@H]8CCCN8[C@H](C(=O)NC(C)(C)C)[C@H](C)NC(=O)[C@H]([C@@H](C)O)NC(=O)[C@H](CC(=O)O)NC(=O)[C@H](CC(C)C)NC9=O)cc7)CC6)cc(CN6CCN(c7ccc(-c8ccc9cc8CNC(=O)[C@@H]8CCCN8[C@H](C(=O)NC(C)(C)C)[C@H](C)NC(=O)[C@H]([C@@H](C)O)NC(=O)[C@H](CC(=O)O)NC(=O)[C@H](CC(C)C)NC9=O)cc7)CC6)c5)CC4)cc3)c(c2)CNC(=O)[C@@H]2CCCN2[C@H](C(=O)NC(C)(C)C)[C@H](C)NC(=O)[C@H]([C@@H](C)O)NC(=O)[C@H](CC(=O)O)NC1=O [Compound 518]		8.7	36
CC(C)C[C@@H]1NC(=O)c2ccc(-c3ccc(N4CCN(Cc5ccc(CN6CCN(c7ccc(-c8ccc9cc8CNC(=O)[C@@H]8CCCN8[C@H](C(=O)NC(C)(C)C)[C@H](C)NC(=O)[C@H]([C@@H](C)O)NC(=O)[C@H](CC(=O)O)NC(=O)[C@H](CC(C)C)NC9=O)cc7)CC6)cc5)CC4)cc3)c(c2)CNC(=O)[C@@H]2CCCN2[C@H](C(=O)NC(C)(C)C)[C@H](C)NC(=O)[C@H]([C@@H](C)O)NC(=O)[C@H](CC(=O)O)NC1=O [Compound 500]	0.8	9.9	12
CC(C)C[C@@H]1NC(=O)C[C@H](CCCCN)N(C)C(=O)[C@H](CCCCNC(=O)CCCCCC(=O)NCCCC[C@@H]2NC(=O)[C@@H]3CCCN3[C@H](C(=O)NC(C)(C)C)[C@H](C)NC(=O)[C@H]([C@@H](C)O)NC(=O)[C@H](CC(=O)O)NC(=O)[C@H](CC(C)C)NC(=O)C[C@H](CCCCN)N(C)C2=O)NC(=O)[C@@H]2CCCN2[C@H](C(=O)NC(C)(C)C)[C@H](C)NC(=O)[C@H]([C@@H](C)O)NC(=O)[C@H](CC(=O)O)NC1=O [Compound 532]		6.9	6.1
CC(C)C[C@@H]1NC(=O)c2ccc(-c3ccc(N4CCN(C(=O)C5(C(=O)N6CCN(c7ccc(-c8ccc9cc8CNC(=O)[C@@H]8CCCN8[C@H](C(=O)NC(C)(C)C)[C@H](C)NC(=O)[C@H]([C@@H](C)O)NC(=O)[C@H](CC(=O)O)NC(=O)[C@H](CC(C)C)NC9=O)cc7)CC6)Cc6ccccc6C5)CC4)cc3)c(c2)CNC(=O)[C@@H]2CCCN2[C@H](C(=O)NC(C)(C)C)[C@H](C)NC(=O)[C@H]([C@@H](C)O)NC(=O)[C@H](CC(=O)O)NC1=O [Compound 461]	0.4	7.9	18
CC(C)C[C@@H]1NC(=O)C[C@H](CCCCN)N(C)C(=O)[C@H](CCCCNC(=O)CCOCCOCCOCCOCCOCCOCCOCCC(=O)NCCCC[C@@H]2NC(=O)[C@@H]3CCCN3[C@H](C(=O)NC(C)(C)C)[C@H](C)NC(=O)[C@H]([C@@H](C)O)NC(=O)[C@H](CC(=O)O)NC(=O)[C@H](CC(C)C)NC(=O)C[C@H](CCCCN)N(C)C2=O)NC(=O)[C@@H]2CCCN2[C@H](C(=O)NC(C)(C)C)[C@H](C)NC(=O)[C@H]([C@@H](C)O)NC(=O)[C@H](CC(=O)O)NC1=O [Compound 536]	0.9	8.9	9.5
CC(C)C[C@@H]1NC(=O)c2ccc(-c3ccc(N4CCN(C(=O)c5ccccc5-c5ccccc5C(=O)N5CCN(c6ccc(-c7ccc8cc7CNC(=O)[C@@H]7CCCN7[C@H](C(=O)NC(C)(C)C)[C@H](C)NC(=O)[C@H]([C@@H](C)O)NC(=O)[C@H](CC(=O)O)NC(=O)[C@H](CC(C)C)NC8=O)cc6)CC5)CC4)cc3)c(c2)CNC(=O)[C@@H]2CCCN2[C@H](C(=O)NC(C)(C)C)[C@H](C)NC(=O)[C@H]([C@@H](C)O)NC(=O)[C@H](CC(=O)O)NC1=O [Compound 517]		2.1	7.5
CC(C)C[C@@H]1NC(=O)c2ccc(-c3ccc(N4CCN(Cc5cccc(CN6CCN(c7ccc(-c8ccc9cc8CNC(=O)[C@@H]8CCCN8[C@H](C(=O)NC(C)(C)C)[C@H](C)NC(=O)[C@H]([C@@H](C)O)NC(=O)[C@H](CC(=O)O)NC(=O)[C@H](CC(C)C)NC9=O)cc7)CC6)c5)CC4)cc3)c(c2)CNC(=O)[C@@H]2CCCN2[C@H](C(=O)NC(C)(C)C)[C@H](C)NC(=O)[C@H]([C@@H](C)O)NC(=O)[C@H](CC(=O)O)NC1=O [Compound 499]	0.2	3.1	17
